Here are results for 1 compound from patent US7000348B2, “Method and composition for tree root colonization” (Vamtech, LLC, priority 2003, dated 2006).

Common to all, as to type: in vivo
One assay relates to R. rubescens. Nature of the assay: Mycorrhizal colonization of Ponderosa pine seedlings by Rhizopogon (root tip tally). The conditions noted are these: potassium formononetinate 60 mg/L with R. rubescens spores vs spores alone. The procedure:
(§1) Ponderosa pine seeds were sown in a soilless mix (50:50 peat:vermiculite) in 2 cm^3 cells in STRYOBLOCK™ containers (Beaver Plastics, Corvallis, Oreg.) inside the greenhouse at the J. Herbert Stone Nursery in Central Point, Oreg. Eight weeks after germination, all emerging ponderosa pine seedlings were inoculated with 100,000 spores each of the ectomycorrhizal fungus R. rubescens using a liquid suspension applied via a traveling irrigation boom. Liquid spore suspension was prepared by maceration of R. rubescens sporocarps in distilled water for 10 min, followed by serial dilution with distilled water. Spore concentrations were determined using a hemacytometer. Soluble fertilizer (250 ppm N, 60 ppm P and 158 ppm K plus micronutrients) was applied with irrigation for optimum growth. Temperatures were held between 65° F. and 75° F. in the greenhouse. The seedlings were hardened off about six months after sowing by reducing the amount of irrigation water and fertilizer in it (to 50 ppm N, 31 ppm P and 150 ppm K plus micronutrients). No pesticides were used on the crop during this period. Ponderosa pine seedlings were then each inoculated again with 100,000 spores of R. rubescens using the same inoculation procedure. […]
(§2) All trials were conducted in a randomized complete block design. […] Means comparisons were calculated using Fisher's LSD (least significant difference). […]

The test system of another assay is R. parksii. The assay is described as follows: Mycorrhizal colonization of Douglas-fir roots by Rhizopogon (root tip tally).
Text: (§3) Douglas-fir seeds were sown in 2 cm^3 in cells in Stryoblock™ containers filled with soilless mix (50:50 peat:vermiculite) in the greenhouse at the J. Herbert Stone Nursery in Central Point, Oreg. Soluble fertilizer applications, temperatures, and hardening off procedure were the same as those described for Ponderosa pine above. No pesticides were used on the crop during this period, and no mycorrhizal inoculum was applied prior to applications of treatments.
(§4) Eight months after sowing, fourteen Douglas-fir seedlings were randomly sampled (2 or 3 from 6 trays) to determine colonization by the mycorrhizal fungus R. parksii. No colonization by R. parksii was present at this time. […]
as §2

The test system of assay [1] is Ponderosa pine seedlings. The assay is described as follows: Caliper diameter of Ponderosa pine seedlings. The conditions noted are these: potassium formononetinate 60 mg/L added to R. rubescens inoculation. The procedure:
as §1, with “greenhouse.” for “greenhouse. The seedlings were hardened off about six months after sowing by reducing the amount of irrigation water and fertilizer in it (to 50 ppm N, 31 ppm P and 150 ppm K plus micronutrients). No pesticides were used on the crop during this period. Ponderosa pine seedlings were then each inoculated again with 100,000 spores of R. rubescens using the same inoculation procedure.”
(§5) The diameter of all seedlings in all of the treatments was then measured with a caliper. […] Samples were analyzed for total nitrogen and phosphorus (Kjeldahl digest with ammonia and orthophosphate read on an auto-analyzer), and extractable potassium (microwave digestion) with inductively couples argon plasma spectrometer (ICPMS).
as §2

The subject of assay [2] is Douglas-fir seedlings. Nature of the assay: Caliper diameter of Douglas-fir seedlings.
Text: as §3, §4, §5, §2

Assay [3] concerns Ponderosa pine seedlings. Nature of the assay: Foliar nutrient analysis of Ponderosa pine needles. The conditions noted are these: 60 mg/L, vs seedlings treated with R. rubescens alone. The procedure: as §1, with “greenhouse.” for “greenhouse. The seedlings were hardened off about six months after sowing by reducing the amount of irrigation water and fertilizer in it (to 50 ppm N, 31 ppm P and 150 ppm K plus micronutrients). No pesticides were used on the crop during this period. Ponderosa pine seedlings were then each inoculated again with 100,000 spores of R. rubescens using the same inoculation procedure.”
as §5, §2

Assay [4] concerns Douglas-fir seedlings. Nature of the assay: Foliar nutrient analysis of Douglas-fir needles.
Text: as §3
Eight months after sowing, fourteen Douglas-fir seedlings were randomly sampled (2 or 3 from 6 trays) to determine colonization by the mycorrhizal fungus R. parksii. No colonization by R. parksii was present at this time. The treatments applied to three trays of 20 seedlings each were a control with no potassium formononetinate or mycorrhizal inoculation (C), potassium formononetinate only at 20 mg/L of soilless mix (M-20), mycorrhizal inoculation only at 100,000 R. parksii spores/cavity applied with a graduated pipette (R-100), mycorrhizal inoculation with R. parksii at 100,000 spores per cavity plus potassium formononetinate at 20 mg/L of soilless mix (0.11 per 60 seedlings) (M-20+R-100), mycorrhizal inoculation with R. parksii at 100,000 spores per cavity plus potassium formononetinate at 60 mg/L of soilless mix (0.33 per 60 seedlings) (M-60+R-100), and mycorrhizal inoculation with R. parksii at 50,000 spores cavity plus potassium formononetinate at 20 mg/L of soilless mix (M-20+R-50). Potassium formononetinate was provided by VAMTech L.L.C., Lansing, Mich.
The diameter of all seedlings in all of the treatments was then measured with a caliper. Needle samples for Ponderosa pine and Douglas-fir were collected from 4 randomly selected seedlings in each treatment for foliar analysis. Samples were analyzed for total nitrogen and phosphorus (Kjeldahl digest with ammonia and orthophosphate read on an auto-analyzer), and extractable potassium (microwave digestion) with inductively couples argon plasma spectrometer (ICPMS).
All trials were conducted in a randomized complete block design. Analyses of variance (ANOVA) were performed separately for seedling caliper, nutrient content, and mycorrhizal colonization (Steel and Torrie 1980). Means comparisons were calculated using Fisher's LSD (least significant difference). Residuals from the performed ANOVA's were examined using normal probability plots, tests that the residuals come from normal distributions and plots of residuals versus predicted values. Before analysis, mycorrhizal colonization data as logarithmically transformed to compensate for log-normally distributed values (Steel and Torrie 1980).

Where [5] appears, read: M = potassium formononetinate mg/L, R = R. parksii spores x1000 per cavity.
[6] abbreviates: R. parksii and potassium formononetinate, over the untreated control, but not over R. parksii alone.

“Also recorded” adds a separate entry of the source.

As to `COc1ccc(-c2coc3cc([O-])ccc3c2=O)cc1.[K+]` [potassium formononetinate, potassium salt of 7-hydroxy, 4′-methoxy isoflavone], the “root colonization by Rhizopogon, Ponderosa pine (effect in words)” value in the assay on R. rubescens is listed as “significantly increased”. In the assay with R. parksii (potassium formononetinate 60 mg/L with R. parksii spores), the “root colonization by Rhizopogon, Douglas-fir (effect in words)” value is given as “significantly increased”. For the same compound, the “Mycorrhizal colonization of Douglas-fir roots by R. parksii” value in the assay with R. parksii (thirteen months after sowing, M-20/M-60 = potassium formononetinate 20/60 mg/L of soilless mix, R-100/R-50 = 100,000/50,000 R. parksii spores per cavity) was 0%. Besides, the “caliper diameter, Ponderosa pine (effect in words)” value in the assay with Ponderosa pine seedlings [1] was “not significantly increased; also recorded: not significantly affected”. Also, in the assay on Douglas-fir seedlings [2] (thirteen months after sowing, M = potassium formononetinate mg/L, R = R. parksii spores x1000 per cavity), the “caliper diameter, Douglas-fir” value is 0.2 cm. Besides, in the assay with Douglas-fir seedlings [2] (vs untreated control, R. parksii alone or plus potassium formononetinate), the “caliper size, Douglas-fir (effect in words)” value is on record as “increased caliper size over the control”. Moreover, the “nitrogen content, Ponderosa pine (effect in words)” value in the assay with Ponderosa pine seedlings [3] is on record as “significantly increased”. Moreover, in the assay on Douglas-fir seedlings [4] (60 mg/L plus R. parksii, vs untreated plants, R. parksii alone and any other treatment), the “potassium content, Douglas-fir (effect in words)” value is recorded as “significantly higher”. In the assay with Douglas-fir seedlings [4] (setting [5]), the “foliar nitrogen content, Douglas-fir needles” value is 1.29% and the “foliar phosphorous content, Douglas-fir needles” value is listed as 0.15%. Besides, in the assay on Douglas-fir seedlings [4] (setting [6]), the “nitrogen content, Douglas-fir (effect in words)” value is recorded as “significantly increased” and the “phosphorus content, Douglas-fir (effect in words)” value was “significantly increased”.
